Tests used:
[1] = system: mycoplasma; conditions: in words, background; cited from earlier work
[2] = system: chromosomes of animals or plants; assay: Deleterious effects on chromosomes; conditions: in words

SMILES | minimum growth inhibitory concentration (MIC) for mycoplasma [1] | mode of action on mycoplasma [1] | deleterious effects on chromosomes [2]
CN(C)c1ccc(O)c2c1C[C@H]1C[C@H]3[C@H](N(C)C)C(O)=C(C(N)=O)C(=O)[C@@]3(O)C(O)=C1C2=O [Compound 3, minocycline] | low | only act bacteriostatically and not mycoplasmacidally | –
NCC1CN(c2c(F)c(N)c3c(=O)c(C(=O)O)cn(C4CC4)c3c2F)CCO1 (stereo not drawn) [Compound A, 5-amino-7-(2-aminomethylmorpholino)-1-cyclopropyl-6,8-difluoro-1,4-dihydro-4-oxoquinoline-3-carboxylic acid] | – | – | excellent

— patent US5051419A, “Prevention or elimination of mycoplasma contamination of animal or plant cell cultures” (Dainippon Pharmaceutical Co., Ltd., priority 1988, dated 1991)
